The results in this text go back to patent US20230295118A1 (EnhancedBio Inc., priority 2022, published 2023).

One assay deals with CDK4/6. The assay is described as follows: CDK4/6 degradation in A375 melanoma cells (FIG. 1). As to conditions: result in words. It counts as cell-based.
Another assay has as its target T1, CDK6 (Homo sapiens, UniProt Q00534).
T1 construct: endogenous in cells
The assay is described as follows: CDK6 degradation (DC50, Dmax). It is filed as cell-based.

The next assay addresses T2, CDK4 (Homo sapiens, UniProt P11802).
T2 construct: endogenous in cells
As to the kind of experiment: CDK4 degradation (DC50, Dmax). It counts as cell-based.

The test system of assay [1] is mantle cell lymphoma cell (Mino or JeKo-1). The assay is described as follows: Antiproliferative effect, MTS cell viability assay. It counts as cell-based. As to conditions: 72 h; for IC50: mantle cell lymphoma cell (Mino or JeKo-1), MTS assay, read-out: IC50 (anti-proliferation); for inhibition of cell proliferation of Mino cells: 0-1 μM, result in words. The procedure, abridged:
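MTS read-out (formazan absorbance at 490 nm) after 72 h exposure of Mino cells to 0–1 μM compound (0.0001, 0.001, 0.01, 0.1, 1 μM). Palbociclib and abemaciclib served as positive controls.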

The next assay has as its system Mino xenograft tumor. The assay is described as follows: In vivo tumor inhibition efficacy, Mino xenograft. Particulars: NOD/SCID mice, 20 mg/kg via oral gavage for 3 weeks; result in words. As for the experimental part: Mino cells were obtained from American Type Culture Collection (ATCC, Manassas, VA). Cells were maintained in RPM 1640 (Life Technologies, Grand Island, NY) supplemented with 10% heat-inactivated fetal bovine serum (56° C. for 30 minutes), penicillin (10 000 units/mL; Sigma, St Louis, Mo), streptomycin (10 mg/mL; Sigma), gentamicin (50 mg/mL; Life Technologies), amphotericin B (25 mg/mL; Sigma), and L-glutamine (200 mM, 29.2 mg/mL; Life Technologies), culture, as previously described (29, 30). Mino cells (10 million) were subcutaneously implanted into the flank of NOD/SCID mice. When the average tumor volume reached approximately 300 cubic millimeters (mm^3), the following treatments were administered in cohorts of 5 mice for each treatment: vehicle alone, 20 mg/kg abemaciclib, 20 mg/kg Compound 90, or 20 mg/kg Compound 94 via oral gavage for 3 weeks. Tumor growth was monitored twice weekly by calipers and tumor volume was calculated using the equation: (½ (length×width^2)).

Structures are written as SMILES. Some results are limits rather than exact numbers.

T1 sequence (Q00534 whole entry): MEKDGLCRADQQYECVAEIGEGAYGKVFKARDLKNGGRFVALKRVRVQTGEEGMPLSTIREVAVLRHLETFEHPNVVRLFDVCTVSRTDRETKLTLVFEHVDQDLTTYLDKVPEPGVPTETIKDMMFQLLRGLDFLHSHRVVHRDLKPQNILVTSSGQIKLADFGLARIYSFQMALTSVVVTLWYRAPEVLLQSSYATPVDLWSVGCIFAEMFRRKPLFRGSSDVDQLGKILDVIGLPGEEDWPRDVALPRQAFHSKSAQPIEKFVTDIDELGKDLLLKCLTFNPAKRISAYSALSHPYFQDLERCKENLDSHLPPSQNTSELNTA
T2 sequence (P11802 whole entry): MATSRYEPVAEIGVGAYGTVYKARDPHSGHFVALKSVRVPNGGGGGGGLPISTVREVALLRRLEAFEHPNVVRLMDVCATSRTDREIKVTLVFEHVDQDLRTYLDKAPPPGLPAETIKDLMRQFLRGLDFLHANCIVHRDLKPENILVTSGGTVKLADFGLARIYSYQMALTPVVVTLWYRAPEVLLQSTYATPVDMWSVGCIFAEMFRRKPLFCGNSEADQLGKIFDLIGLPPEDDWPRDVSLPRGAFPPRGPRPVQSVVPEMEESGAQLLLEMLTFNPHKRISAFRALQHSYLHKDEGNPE

In the case of `Cc1nc2c(F)cc(-c3nc(Nc4ccc(CN5CCN(CCCNc6ccc7c(c6)C(=O)N(C6CCC(=O)NC6=O)C7=O)CC5)cn4)ncc3F)cc2n1C(C)C` (centres unmarked) [Compound 73, 2-(2,6-dioxopiperidin-3-yl)-5-((3-(4-((6-((5-fluoro-4-(4-fluoro-1-isopropyl-2-methyl-1H-benzo[d]imidazol-6-yl)pyrimidin-2-yl)amino)pyridin-3-yl)methyl)piperazin-1-yl)propyl)amino) isoindoline-1,3-dione], the CDK4/6 degradation entry in the assay with CDK4/6 is on record as “dose-dependent CDK4/6 degradation”. On CDK6, this compound yielded a DC50 below 50 nM and a Dmax above 80%. Moreover, at CDK4, the half-maximal degradation concentration (DC50) was below 50 nM and the Dmax is above 80%. Moreover, in assay [1], the IC50 is below 50 nM and the “inhibition of cell proliferation of Mino cells” value (“inhibition” for short) is reported as “dose-dependent inhibition of cell proliferation”.
As for `CC(=O)c1c(C)c2cnc(Nc3ccc(N4CCN(CCCNc5ccc6c(c5)C(=O)N(C5CCC(=O)NC5=O)C6=O)CC4)cn3)nc2n(C2CCCC2)c1=O` (centres unmarked) [Compound 49, 5-((3-(4-(6-((6-acetyl-8-cyclopentyl-5-methyl-7-oxo-7,8-dihydropyrido[2,3-d]pyrimidin-2-yl)amino)pyridin-3-yl)piperazin-1-yl)propyl)amino)-2-(2,6-dioxopiperidin-3-yl) isoindoline-1,3-dione], the CDK4/6 degradation entry in the assay with CDK4/6 is “dose-dependent CDK4/6 degradation”. Further, at CDK6, the DC50 is below 50 nM and the Dmax is above 80%. Moreover, at CDK4, the DC50 is below 50 nM and the Dmax is above 80%. Also, in assay [1], the IC50 is below 50 nM and the “inhibition” value is given as “dose-dependent inhibition of cell proliferation”.
As for `CC(=O)c1c(C)c2cnc(Nc3ccc(N4CCN(C(=O)CNc5ccc6c(c5)C(=O)N(C5CCC(=O)NC5=O)C6=O)CC4)cn3)nc2n(C2CCCC2)c1=O` (centres unmarked) [Compound 104, 5-((2-(4-(6-((6-acetyl-8-cyclopentyl-5-methyl-7-oxo-7,8-dihydropyrido[2,3-d]pyrimidin-2-yl)amino)pyridin-3-yl)piperazin-1-yl)-2-oxoethyl)amino)-2-(2,6-dioxopiperidin-3-yl)isoindoline-1,3-dione], the CDK4/6 degradation entry with CDK4/6 is “dose-dependent CDK4/6 degradation”. At CDK6, this compound had a DC50 of 50 to 200 nM and a Dmax above 60%. On CDK4, this compound had a DC50 of 50 to 200 nM and a Dmax above 60%. Besides, in assay [1], the IC50 was below 50 nM and the “inhibition” value is recorded as “dose-dependent inhibition of cell proliferation”.
Take `Cc1nc2c(F)cc(-c3nc(Nc4ccc(CN5CCN(CC6CN(c7ccc8c(c7)C(=O)N(C7CCC(=O)NC7=O)C8=O)C6)CC5)cn4)ncc3F)cc2n1C(C)C` (centres unmarked) [Compound 94, 2-(2,6-dioxopiperidin-3-yl)-5-(3-((4-((6-((5-fluoro-4-(4-fluoro-1-isopropyl-2-methyl-1H-benzo[d]imidazol-6-yl)pyrimidin-2-yl)amino)pyridin-3-yl)methyl)piperazin-1-yl)methyl)azetidin-1-yl)isoindoline-1,3-dione]: the “Mino xenograft tumor growth” value in the assay with Mino xenograft tumor is listed as “inhibiting Mino xenograft tumor growth”. On CDK6, this compound had a DC50 below 50 nM and a Dmax above 80%. On CDK4, this compound yielded a DC50 below 50 nM and a Dmax above 80%. Besides, in assay [1], the IC50 was below 50 nM and the “inhibition” value is on record as “dose-dependent inhibition of cell proliferation”.
On CDK6, `Cc1nc2c(F)cc(-c3nc(Nc4ccc(CC5CCN(CC6CN(c7ccc8c(c7)CN(C7CCC(=O)NC7=O)C8=O)C6)CC5)cn4)ncc3F)cc2n1C(C)C` (centres unmarked) [Compound 140, 3-(5-(3-((4-((6-((5-fluoro-4-(4-fluoro-1-isopropyl-2-methyl-1H-benzo[d]imidazol-6-yl)pyrimidin-2-yl)amino)pyridin-3-yl)methyl)piperidin-1-yl)methyl)azetidin-1-yl)-1-oxoisoindolin-2-yl)piperidine-2,6-dione] showed a DC50 below 50 nM and a Dmax above 80%. At CDK4, this compound registered a DC50 below 50 nM and a Dmax above 80%. In addition, the IC50 in assay [1] is below 50 nM.
For `Cc1nc2c(F)cc(-c3nc(Nc4ccc(CC5CCN(C6CCN(c7ccc(C(=O)NC8CCC(=O)NC8=O)cc7)CC6)CC5)cn4)ncc3F)cc2n1C(C)C` (centres unmarked) [Compound 171, N-(2,6-dioxopiperidin-3-yl)-4-(4-((6-((5-fluoro-4-(4-fluoro-1-isopropyl-2-methyl-1H-benzo[d]imidazol-6-yl)pyrimidin-2-yl)amino)pyridin-3-yl)methyl)-[1,4′-bipiperidin]-1′-yl) benzamide], the DC50 at CDK6 and on CDK4 was 50 to 200 nM throughout. Also, the Dmax at CDK6 and on CDK4 was above 60% throughout. Moreover, in assay [1], the IC50 is 50 to 200 nM.
`Cc1nc2c(F)cc(-c3nc(Nc4ccc(CN5CCN(CCCNc6ccc(N7CCC(=O)NC7=O)cc6)CC5)cn4)ncc3F)cc2n1C(C)C` [Compound 107, 1-(4-((3-(4-((6-((5-fluoro-4-(4-fluoro-1-isopropyl-2-methyl-1H-benzo[d]imidazol-6-yl)pyrimidin-2-yl)amino)pyridin-3-yl)methyl)piperazin-1-yl)propyl)amino)phenyl)dihydro-pyrimidine-2,4 (1H,3H)-dione]: the DC50 on CDK6 and at CDK4 was below 50 nM each time. Further, the Dmax at CDK6 and at CDK4 was above 80% throughout. Moreover, the IC50 in assay [1] is below 50 nM.
At CDK6, `CC(=O)c1c(C)c2cnc(Nc3ccc(N4CCN(C(=O)C5CN(c6ccc7c(c6)CN(C6CCC(=O)NC6=O)C7=O)C5)CC4)cn3)nc2n(C2CCCC2)c1=O` (centres unmarked) [Compound 122, 3-(5-(3-(4-(6-((6-acetyl-8-cyclopentyl-5-methyl-7-oxo-7,8-dihydropyrido[2,3-d]pyrimidin-2-yl)amino)pyridin-3-yl)piperazine-1-carbonyl)azetidin-1-yl)-1-oxoisoindolin-2-yl) piperidine-2,6-dione] displayed a DC50 below 50 nM and a Dmax above 80%. On CDK4, this compound registered a DC50 below 50 nM and a Dmax above 80%. For the same compound, the IC50 in assay [1] is below 50 nM.
Consider `CC(=O)c1c(C)c2cnc(Nc3ccc(C4CCN(CC5CN(c6ccc(C(=O)NC7CCC(=O)NC7=O)cc6)C5)CC4)cn3)nc2n(C2CCCC2)c1=O` (centres unmarked) [Compound 127, 4-(3-((4-(6-((6-acetyl-8-cyclopentyl-5-methyl-7-oxo-7,8-dihydropyrido[2,3-d]pyrimidin-2-yl)amino)pyridin-3-yl)piperidin-1-y)methyl)azetidin-1-yl)-N-(2,6-dioxopiperidin-3-yl)benzamide], for which, on CDK6, the DC50 was 50 to 200 nM and the Dmax is above 80%. At CDK4, this compound had a DC50 of 50 to 200 nM and a Dmax above 80%. The IC50 in assay [1] was below 50 nM.
With `CC(=O)c1c(C)c2cnc(Nc3ccc(N4CCN(CCC5CCN(c6ccc7c(c6)C(=O)N(C6CCC(=O)NC6=O)C7=O)CC5)CC4)cn3)nc2n(C2CCCC2)c1=O` (centres unmarked) [Compound 69, 5-(4-(2-(4-(6-((6-acetyl-8-cyclopentyl-5-methyl-7-oxo-7,8-dihydropyrido[2,3-d]pyrimidin-2-yl)amino)pyridin-3-yl)piperazin-1-yl)ethyl)piperidin-1-yl)-2-(2,6-dioxopiperidin-3-yl)isoindoline-1,3-dione], the DC50 at CDK6 and at CDK4 was 50 to 200 nM in each case. Further, the Dmax at CDK6 and on CDK4 was above 60% throughout. Moreover, the IC50 in assay [1] lay in the range of 50 to 200 nM.
For `CC(=O)c1c(C)c2cnc(Nc3ccc(N4CCN(C(=O)C5CCN(c6ccc7c(c6)CN(C6CCC(=O)NC6=O)C7=O)CC5)CC4)cn3)nc2n(C2CCCC2)c1=O` (centres unmarked) [Compound 115, 3-(5-(4-(4-(6-((6-acetyl-8-cyclopentyl-5-methyl-7-oxo-7,8-dihydropyrido[2,3-d]pyrimidin-2-yl)amino)pyridin-3-yl)piperazine-1-carbonyl)piperidin-1-yl)-1-oxoisoindolin-2-yl)piperidine-2,6-dione], on CDK6, the DC50 lay in the range of 50 to 200 nM and the Dmax is above 60%. At CDK4, this compound returned a DC50 of 50 to 200 nM and a Dmax above 60%. Also, the IC50 in assay [1] was below 50 nM.
For the compound `CC(=O)c1c(C)c2cnc(Nc3ccc(N4CCN(C(=O)N5CCN(C6CCN(c7ccc8c(c7)CN(C7CCC(=O)NC7=O)C8=O)CC6)CC5)CC4)cn3)nc2n(C2CCCC2)c1=O` (centres unmarked) [Compound 6, 3-(5-(4-(4-(4-(6-((6-acetyl-8-cyclopentyl-5-methyl-7-oxo-7,8-dihydropyrido[2,3-d]pyrimidin-2-yl)amino)pyridin-3-yl)piperazine-1-carbonyl)piperazin-1-yl)piperidin-1-yl)-1-oxoisoindolin-2-yl)piperidine-2,6-dione], on CDK6, the DC50 was above 200 nM and the Dmax was above 50%. On CDK4, this compound yielded a DC50 above 200 nM and a Dmax above 50%. The IC50 in assay [1] was above 200 nM.

Usually DC50 stands for the concentration giving 50% degradation. A low value points to degradation at low concentration. In general, Dmax refers to the largest share of the target that was removed. Read a high Dmax as deep degradation.
